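Interpolation was linear, between the two tested concentrations surrounding the appropriate level; five concentrations were tested over 48 hours in 96-well plates. The concentration for 50% growth inhibition is given as GI50. TGI marks complete inhibition of growth.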
Experiments:
Experiment in all cases: NCI anticancer screen, dose series, 48 h
TK-10 renal = system: TK-10 renal
M14 melanoma = system: M14 melanoma
SF-295 CNS = system: SF-295 CNS
IGROV1 ovarian = system: IGROV1 ovarian
COLO 205 colon = system: COLO 205 colon
LOX IMVI melanoma = system: LOX IMVI melanoma
M19-MEL melanoma = system: M19-MEL melanoma
SK-OV-3 ovarian = system: SK-OV-3 ovarian
CAKI-1 renal = system: CAKI-1 renal
NCI-H522 lung = system: NCI-H522 lung
KM20L2 colon = system: KM20L2 colon
K-562 leukemia = system: K-562 leukemia
DMS 273 small cell lung = system: DMS 273 small cell lung
HT29 colon = system: HT29 colon
A498 renal = system: A498 renal
HOP-62 NSCLC = system: HOP-62 NSCLC
NCI-H226 lung = system: NCI-H226 lung
ACHN renal = system: ACHN renal
MALME-3M melanoma = system: MALME-3M melanoma
SN12C renal = system: SN12C renal
A549 NSCLC = system: A549 NSCLC
786-0 renal = system: 786-0 renal
HL-60(TB) leukemia = system: HL-60(TB) leukemia
UACC-62 melanoma = system: UACC-62 melanoma
HCT-15 colon = system: HCT-15 colon
SNB-78 CNS = system: SNB-78 CNS
SNB-75 CNS = system: SNB-75 CNS
SF-268 CNS = system: SF-268 CNS
DLD-1 colon = system: DLD-1 colon
HOP-18 NSCLC = system: HOP-18 NSCLC
SF-539 CNS = system: SF-539 CNS
NCI-H460 lung = system: NCI-H460 lung
MOLT-4 leukemia = system: MOLT-4 leukemia
RXF 393 renal = system: RXF 393 renal
UO-31 renal = system: UO-31 renal
HCT-116 colon = system: HCT-116 colon
LXFL 529 NSCLC = system: LXFL 529 NSCLC
SNB-19 CNS = system: SNB-19 CNS
OVCAR-4 ovarian = system: OVCAR-4 ovarian
DMS 114 small cell lung = system: DMS 114 small cell lung
OVCAR-8 ovarian = system: OVCAR-8 ovarian
SW-620 colon = system: SW-620 colon
CCRF-CEM leukemia = system: CCRF-CEM leukemia
HCC-2998 colon = system: HCC-2998 colon
RPMI-8226 leukemia = system: RPMI-8226 leukemia
SK-MEL-2 melanoma = system: SK-MEL-2 melanoma
SK-MEL-5 melanoma = system: SK-MEL-5 melanoma
U251 CNS = system: U251 CNS
UACC-257 melanoma = system: UACC-257 melanoma
OVCAR-5 ovarian = system: OVCAR-5 ovarian
KM12 colon = system: KM12 colon
HOP-92 NSCLC = system: HOP-92 NSCLC
EKVX NSCLC = system: EKVX NSCLC
XF 498 CNS = system: XF 498 CNS
SR leukemia = system: SR leukemia
NCI-H23 lung = system: NCI-H23 lung
OVCAR-3 ovarian = system: OVCAR-3 ovarian
SK-MEL-28 melanoma = system: SK-MEL-28 melanoma

## N#CC1(C#N)C=CC(=C2OCC3CCCN23)C=C1 (stereo unspecified)
TK-10 renal
  TGI: > 100 µM
M14 melanoma
  TGI: > 100 µM
SF-295 CNS
  TGI: > 100 µM
IGROV1 ovarian
  TGI: > 100 µM
COLO 205 colon
  TGI: > 100 µM
LOX IMVI melanoma
  TGI: > 100 µM
M19-MEL melanoma
  TGI: > 100 µM
SK-OV-3 ovarian
  TGI: > 100 µM
CAKI-1 renal
  TGI: > 100 µM
NCI-H522 lung
  TGI: > 100 µM
KM20L2 colon
  TGI: > 100 µM
K-562 leukemia
  TGI: > 100 µM
DMS 273 small cell lung
  TGI: > 100 µM
HT29 colon
  TGI: > 100 µM
A498 renal
  TGI: > 100 µM
HOP-62 NSCLC
  TGI: > 100 µM
NCI-H226 lung
  TGI: > 100 µM
ACHN renal
  TGI: > 100 µM
MALME-3M melanoma
  TGI: > 100 µM
SN12C renal
  TGI: > 100 µM
A549 NSCLC
  TGI: > 100 µM
786-0 renal
  TGI: > 100 µM
HL-60(TB) leukemia
  TGI: > 100 µM
UACC-62 melanoma
  TGI: > 100 µM
HCT-15 colon
  TGI: > 100 µM
SNB-78 CNS
  TGI: > 100 µM
SNB-75 CNS
  TGI: > 100 µM
SF-268 CNS
  TGI: > 100 µM
DLD-1 colon
  TGI: > 100 µM
HOP-18 NSCLC
  TGI: > 100 µM
SF-539 CNS
  TGI: > 100 µM
NCI-H460 lung
  TGI: > 100 µM
MOLT-4 leukemia
  TGI: > 100 µM
RXF 393 renal
  TGI: > 100 µM
UO-31 renal
  TGI: > 100 µM
HCT-116 colon
  TGI: > 100 µM
LXFL 529 NSCLC
  TGI: > 100 µM
SNB-19 CNS
  TGI: > 100 µM
OVCAR-4 ovarian
  TGI: > 100 µM
DMS 114 small cell lung
  TGI: > 100 µM
OVCAR-8 ovarian
  TGI: > 100 µM
SW-620 colon
  TGI: > 100 µM
CCRF-CEM leukemia
  TGI: > 100 µM
HCC-2998 colon
  TGI: > 100 µM
RPMI-8226 leukemia
  TGI: > 100 µM
SK-MEL-2 melanoma
  TGI: > 100 µM
SK-MEL-5 melanoma
  TGI: > 100 µM
U251 CNS
  TGI: > 100 µM
UACC-257 melanoma
  TGI: > 100 µM
OVCAR-5 ovarian
  TGI: > 100 µM
KM12 colon
  TGI: > 100 µM
HOP-92 NSCLC
  TGI: > 100 µM

## CC(=O)NNc1nc(C)c(C(=O)NNC(=O)C(=O)Nc2c([N+](=O)[O-])ccc(C)c2C)s1
TK-10 renal
  TGI: > 100 µM
M14 melanoma
  TGI: > 100 µM
SF-295 CNS
  TGI: > 100 µM
IGROV1 ovarian
  TGI: > 100 µM
COLO 205 colon
  TGI: > 100 µM
LOX IMVI melanoma
  TGI: > 100 µM
M19-MEL melanoma
  TGI: > 100 µM
EKVX NSCLC
  TGI: > 100 µM
CAKI-1 renal
  TGI: > 100 µM
NCI-H522 lung
  TGI: > 100 µM
KM20L2 colon
  TGI: > 100 µM
K-562 leukemia
  TGI: > 100 µM
DMS 273 small cell lung
  TGI: > 100 µM
XF 498 CNS
  TGI: > 100 µM
HT29 colon
  TGI: > 100 µM
A498 renal
  TGI: > 100 µM
HOP-62 NSCLC
  TGI: > 100 µM
NCI-H226 lung
  TGI: > 100 µM
ACHN renal
  TGI: > 100 µM
SR leukemia
  TGI: > 100 µM
MALME-3M melanoma
  TGI: > 100 µM
SN12C renal
  TGI: > 100 µM
A549 NSCLC
  TGI: > 100 µM
NCI-H23 lung
  TGI: > 100 µM
786-0 renal
  TGI: > 100 µM
HL-60(TB) leukemia
  TGI: > 100 µM
UACC-62 melanoma
  TGI: > 100 µM
HCT-15 colon
  TGI: > 100 µM
SNB-78 CNS
  TGI: > 100 µM
SF-268 CNS
  TGI: > 100 µM
DLD-1 colon
  TGI: > 100 µM
SF-539 CNS
  TGI: > 100 µM
NCI-H460 lung
  TGI: > 100 µM
MOLT-4 leukemia
  TGI: > 100 µM
OVCAR-3 ovarian
  TGI: > 100 µM
UO-31 renal
  TGI: > 100 µM
HCT-116 colon
  TGI: > 100 µM
LXFL 529 NSCLC
  TGI: > 100 µM
SNB-19 CNS
  TGI: > 100 µM
OVCAR-4 ovarian
  TGI: > 100 µM
DMS 114 small cell lung
  TGI: > 100 µM
OVCAR-8 ovarian
  TGI: > 100 µM
SW-620 colon
  TGI: > 100 µM
CCRF-CEM leukemia
  TGI: > 100 µM
HCC-2998 colon
  TGI: > 100 µM
RPMI-8226 leukemia
  TGI: > 100 µM
SK-MEL-2 melanoma
  TGI: > 100 µM
SK-MEL-5 melanoma
  TGI: > 100 µM
U251 CNS
  TGI: > 100 µM
UACC-257 melanoma
  TGI: > 100 µM
OVCAR-5 ovarian
  TGI: > 100 µM
SK-MEL-28 melanoma
  TGI: > 100 µM
KM12 colon
  TGI: > 100 µM
HOP-92 NSCLC
  TGI: > 100 µM

## C/C=C/C(=O)[O-].C/C=C/C(=O)[O-].N.N.N.N.[Co+3].[O-][Cl+3]([O-])([O-])[O-]
TK-10 renal
  GI50: > 100 µM
  TGI: > 100 µM
M14 melanoma
  GI50: > 100 µM
  TGI: > 100 µM
SF-295 CNS
  GI50: > 100 µM
  TGI: > 100 µM
IGROV1 ovarian
  GI50: > 100 µM
  TGI: > 100 µM
COLO 205 colon
  GI50: > 100 µM
  TGI: > 100 µM
LOX IMVI melanoma
  GI50: > 100 µM
  TGI: > 100 µM
SK-OV-3 ovarian
  GI50: > 100 µM
  TGI: > 100 µM
EKVX NSCLC
  GI50: > 100 µM
  TGI: > 100 µM
NCI-H522 lung
  GI50: 83.9 µM
  TGI: > 100 µM
KM20L2 colon
  GI50: > 100 µM
  TGI: > 100 µM
K-562 leukemia
  GI50: > 100 µM
  TGI: > 100 µM
DMS 273 small cell lung
  GI50: > 100 µM
  TGI: > 100 µM
HT29 colon
  GI50: > 100 µM
  TGI: > 100 µM
A498 renal
  GI50: > 100 µM
  TGI: > 100 µM
HOP-62 NSCLC
  GI50: > 100 µM
  TGI: > 100 µM
ACHN renal
  GI50: > 100 µM
  TGI: > 100 µM
MALME-3M melanoma
  GI50: > 100 µM
  TGI: > 100 µM
SN12C renal
  GI50: > 100 µM
  TGI: > 100 µM
A549 NSCLC
  GI50: > 100 µM
  TGI: > 100 µM
NCI-H23 lung
  GI50: > 100 µM
  TGI: > 100 µM
786-0 renal
  GI50: > 100 µM
  TGI: > 100 µM
HL-60(TB) leukemia
  GI50: > 100 µM
  TGI: > 100 µM
UACC-62 melanoma
  GI50: > 100 µM
  TGI: > 100 µM
HCT-15 colon
  GI50: > 100 µM
  TGI: > 100 µM
SNB-78 CNS
  GI50: > 100 µM
  TGI: > 100 µM
SNB-75 CNS
  GI50: 47.4 µM
  TGI: > 100 µM
SF-268 CNS
  GI50: > 100 µM
  TGI: > 100 µM
DLD-1 colon
  GI50: > 100 µM
  TGI: > 100 µM
SF-539 CNS
  GI50: > 100 µM
  TGI: > 100 µM
NCI-H460 lung
  GI50: > 100 µM
  TGI: > 100 µM
MOLT-4 leukemia
  GI50: > 100 µM
  TGI: > 100 µM
OVCAR-3 ovarian
  GI50: > 100 µM
  TGI: > 100 µM
UO-31 renal
  GI50: > 100 µM
  TGI: > 100 µM
HCT-116 colon
  GI50: > 100 µM
  TGI: > 100 µM
LXFL 529 NSCLC
  GI50: > 100 µM
  TGI: > 100 µM
SNB-19 CNS
  GI50: > 100 µM
  TGI: > 100 µM
OVCAR-4 ovarian
  GI50: > 100 µM
  TGI: > 100 µM
OVCAR-8 ovarian
  GI50: > 100 µM
  TGI: > 100 µM
SW-620 colon
  GI50: > 100 µM
  TGI: > 100 µM
CCRF-CEM leukemia
  GI50: > 100 µM
  TGI: > 100 µM
HCC-2998 colon
  GI50: > 100 µM
  TGI: > 100 µM
RPMI-8226 leukemia
  GI50: > 100 µM
  TGI: > 100 µM
SK-MEL-2 melanoma
  GI50: > 100 µM
  TGI: > 100 µM
SK-MEL-5 melanoma
  GI50: > 100 µM
  TGI: > 100 µM
U251 CNS
  GI50: > 100 µM
  TGI: > 100 µM
UACC-257 melanoma
  GI50: > 100 µM
  TGI: > 100 µM
OVCAR-5 ovarian
  GI50: > 100 µM
  TGI: > 100 µM
SK-MEL-28 melanoma
  GI50: > 100 µM
  TGI: > 100 µM
KM12 colon
  GI50: > 100 µM
  TGI: > 100 µM
HOP-92 NSCLC
  GI50: > 100 µM
  TGI: > 100 µM
